What was measured:
[1] = test system: A549 lung adenocarcinoma xenografts; assay: Animal survival study in vivo, A549 lung adenocarcinoma xenograft model; parameters: species or system SCID beige mice
Protocol: Partially fucosylated GlycArt-mAb was provided as stock solution (c=11.3 mg/ml), in a buffer containing histidine, trehalose and polysorbate 20. The antibody stock solution was appropriately diluted in PBS prior to injection.
The antibody concentration was adjusted by dilution of the reconstituted stock solution prior to injection.
Irinotecan/CPT-11 (Campto®) was purchased as clinical formulation (20 mg/ml) from Pfizer Pharma GmbH, Karlsruhe, Germany. The antibody concentration was adjusted by dilution of the reconstituted stock solution prior to injection.
A549 human Non Small Cell Lung Cancer (NSCLC) cells were obtained from ATCC. The tumor cell line was routinely cultured in RPMI medium (PAA Laboratories, Austria) supplemented with 10% fetal bovine serum (PAA Laboratories, Austria) and 2 mM L-glutamine, at 37° C. in a water-saturated atmosphere at 5% CO2.
Passage 3 of A549 cells was used for in vivo injection. 2×10^6 cells in PBS were injected intravenously (i.v.).
Female SCID beige mice; age 7-8 weeks at arrival (purchased from Charles River, Sulzfeld, Germany) were maintained under specific pathogen-free conditions with daily cycles of 12 h light/12 h darkness according to committed guidelines (GV-Solas; Felasa; TierschG). […]
The primary parameter was survival. The data was statistically analyzed by log rank test.

colorectal cancer = details: combined with 5-fluorouracil and leucovorin; first-line treatment for colorectal cancer; cited from earlier work

| SMILES | p (log rank test), survival compared to vehicle control ([1]; antibodies 25 mg/kg i.p. every seven days, irinotecan 20 mg/kg i.p. four times, single agents or combinations) | animal survival compared to vehicle control ([1]; single agents, antibodies 25 mg/kg i.p. every seven days (day 7-98), irinotecan 20 mg/kg i.p. day 7, 10, 14, 17, A549 cells injected i.v.) | response rates (colorectal cancer) |
| --- | --- | --- | --- |
| CCc1c2c(nc3ccc(OC(=O)N4CCC(N5CCCCC5)CC4)cc13)-c1cc3c(c(=O)n1C2)COC(=O)[C@]3(O)CC [irinotecan] | 0.017 | significantly prolonged animal survival | – |
| O=C1[O][Pt]2([NH][C@@H]3CCCC[C@H]3[NH]2)[O]C1=O [oxaliplatin] | – | – | 25-40% |

Source: patent publication US20100247533A1, “TREATMENT WITH A HUMANIZED ANTI-EGFR IgG1 ANTIBODY AND IRINOTECAN” (priority 2009, published 2010)
